How the values were obtained:
Native M. tb PGDH [1] = biological target: T1, Native M. tb PGDH (Mycobacterium tuberculosis, UniProt P9WNX3); type: biochemical; settings: high HPAP level where substrate inhibition is significant, pH 7.5
Human PGDH = Human PGDH (Homo sapiens, UniProt O43175); test: Inhibition of human PGDH; type: biochemical; settings: unpublished observation
M. tb PGDH [2] = settings: cited from earlier work
Native M. tb PGDH [3] = biological target: T1, Native M. tb PGDH; type: biochemical; settings: HPAP 400 μM, NADH varied, 200 mM potassium phosphate, pH 7.5
M. tb PGDH [4] = test: Transient binding of NADH to the enzyme in the absence of substrate; parameters: species or system Mycobacterium tuberculosis; settings: read-out: Kd of NADH at the second (anion-binding) site; calculated from the rates of NADH binding determined in the absence of substrate
Native M. tb PGDH [5] = biological target: T1, Native M. tb PGDH; type: binding; settings: no substrate, excitation 295 nm, fluorescence 420 nm, pH 7.5
Native M. tb PGDH [6] = biological target: T1, Native M. tb PGDH; test: Stopped-flow time course of NADH turnover with kinetic simulation to Scheme 2; type: biochemical; settings: for k+i / k-i: from simulation
M. tb PGDH [7] = settings: cited from earlier work; remark: listed apart in the source
Native M. tb PGDH [8] = biological target: T1, Native M. tb PGDH; settings: read-out: Ki, HPAP (substrate inhibition); cited from earlier work
[9] = step ES + N = ESN (NADH to active site)
[10] = step ES + N = NES (NADH to second site)
[11] = step ESN + N = NESN (NADH to second site)
[12] = step SES + N = SESN (NADH to active site)

T1 sequence (P9WNX3 whole entry): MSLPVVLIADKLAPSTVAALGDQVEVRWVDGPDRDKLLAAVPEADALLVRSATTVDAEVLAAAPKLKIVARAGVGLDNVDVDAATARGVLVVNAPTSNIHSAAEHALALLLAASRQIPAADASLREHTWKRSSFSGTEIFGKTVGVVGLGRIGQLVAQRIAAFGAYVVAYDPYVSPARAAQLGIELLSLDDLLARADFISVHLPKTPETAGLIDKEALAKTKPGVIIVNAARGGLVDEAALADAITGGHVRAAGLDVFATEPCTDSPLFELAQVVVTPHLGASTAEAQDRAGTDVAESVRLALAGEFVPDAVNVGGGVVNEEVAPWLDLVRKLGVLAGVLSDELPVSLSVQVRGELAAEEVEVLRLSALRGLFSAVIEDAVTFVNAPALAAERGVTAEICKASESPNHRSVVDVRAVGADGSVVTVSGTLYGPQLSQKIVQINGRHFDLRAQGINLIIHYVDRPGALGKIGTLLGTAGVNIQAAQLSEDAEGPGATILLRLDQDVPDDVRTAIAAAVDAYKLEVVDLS
Chain of Human PGDH (O43175 whole entry): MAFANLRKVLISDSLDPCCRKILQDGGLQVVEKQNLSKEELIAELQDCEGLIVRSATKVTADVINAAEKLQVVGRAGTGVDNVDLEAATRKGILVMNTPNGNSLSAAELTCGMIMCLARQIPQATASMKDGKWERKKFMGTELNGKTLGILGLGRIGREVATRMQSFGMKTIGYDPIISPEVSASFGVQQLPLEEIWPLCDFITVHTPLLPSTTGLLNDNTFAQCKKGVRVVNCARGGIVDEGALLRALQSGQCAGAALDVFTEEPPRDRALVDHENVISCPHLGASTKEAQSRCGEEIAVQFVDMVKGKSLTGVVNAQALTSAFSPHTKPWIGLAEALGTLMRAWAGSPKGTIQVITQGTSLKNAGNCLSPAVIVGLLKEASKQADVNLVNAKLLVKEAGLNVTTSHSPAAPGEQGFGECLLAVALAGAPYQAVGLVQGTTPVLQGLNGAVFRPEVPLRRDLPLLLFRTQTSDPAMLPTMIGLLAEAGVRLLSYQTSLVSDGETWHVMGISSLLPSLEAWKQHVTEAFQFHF

N[C@@H](CO)C(=O)O [L-serine]
n (Hill coefficient), serine inhibition, High Substrate (Native M. tb PGDH [1]): 1.5 ± 0.1 | Inhibition by L-serine (Human PGDH): not inhibited

O=C(O)C(O)C(O)C(=O)O (stereo not shown) [tartrate]
Effect of tartrate binding to the anion-binding site on rate of catalysis (M. tb PGDH [2]): does not effect the rate of catalysis

NADH
K0.5, Activity vs NADH (Native M. tb PGDH [3]): 106 ± 5 µM | n (Hill coefficient), Activity vs NADH (Native M. tb PGDH [3]): 2.5 ± 0.2 | Kd (M. tb PGDH [4]): ~0.6 µM | K0.5, FRET vs NADH (Native M. tb PGDH [5]): 3.2 ± 0.1 µM | n (Hill coefficient), FRET vs NADH (Native M. tb PGDH [5]): 1.6 ± 0.1 | k+i (Native M. tb PGDH [6]; [9]): 4.09e+08 M⁻¹ s⁻¹ | k-i (Native M. tb PGDH [6]; [9]): 70 s⁻¹ | k+i (Native M. tb PGDH [6]; [10]): 0 M⁻¹ s⁻¹ | k-i (Native M. tb PGDH [6]; [10]): 0 s⁻¹ | k+i (Native M. tb PGDH [6]; [11]): 0 M⁻¹ s⁻¹ | k-i (Native M. tb PGDH [6]; [11]): 0 s⁻¹ | k+i (Native M. tb PGDH [6]; step NES + N = NESN (NADH to active site)): 7.59e+08 M⁻¹ s⁻¹ | k+i (Native M. tb PGDH [6]; [12]): 190000 M⁻¹ s⁻¹ | k-i (Native M. tb PGDH [6]; [12]): 3 s⁻¹ | k+i (M. tb PGDH [7]): 0.37 ^c μM^-1s^-1 | k-i (M. tb PGDH [7]): 0.22 ^c s^-1

hydroxypyruvic acid phosphate [HPAP]
Ki (Native M. tb PGDH [8]): 950 ± 120 µM | Substrate inhibition by HPAP (Human PGDH): displays substrate inhibition | Kd (Native M. tb PGDH [6]; read-out: Kd for HPAP at the second (anion-binding) site): ~8 µM

From PMC2692652 (Biochemistry, 2009)
